Measured values as given in the CheMixHub viscosity set.
± gives the uncertainty stated by the source.

Assay: xn = mol fraction of the nth substance listed

C=COC(C)=O + CCc1ccccc1
viscosity [mPa·s], 101 kPa
Details	x1 = 0.1246	x1 = 0.2478	x1 = 0.3516	x1 = 0.4658	x1 = 0.576	x1 = 0.6587	x1 = 0.7601	x1 = 0.8593	x1 = 0.9467
303.15 K	0.556 ± 0.007	0.523 ± 0.007	0.499 ± 0.006	0.475 ± 0.006	0.453 ± 0.006	0.439 ± 0.006	0.422 ± 0.006	0.408 ± 0.005	0.397 ± 0.005
313.15 K	0.506 ± 0.007	0.473 ± 0.006	0.45 ± 0.006	0.426 ± 0.006	0.407 ± 0.005	0.394 ± 0.005	0.379 ± 0.005	0.364 ± 0.005	0.352 ± 0.005

CC(C)c1ccccc1 + CCc1ccccc1
101.33 kPa, x1 = 0.4675
Details	viscosity [mPa·s]
293.15 K	0.696 ± 0.004
313.15 K	0.545 ± 0.003

CCCCOC(C)=O + CN1CCCC1=O
viscosity [mPa·s], 101 kPa
Details	x2 = 0.1327	x2 = 0.256	x2 = 0.3711	x2 = 0.4785	x2 = 0.5792	x2 = 0.6737	x2 = 0.7626	x2 = 0.8463	x2 = 0.9253
303.15 K	0.801 ± 0.017	0.941 ± 0.02	1.061 ± 0.022	1.165 ± 0.024	1.258 ± 0.026	1.339 ± 0.028	1.405 ± 0.029	1.463 ± 0.03	1.512 ± 0.031
308.15 K	0.737 ± 0.015	0.861 ± 0.018	0.968 ± 0.02	1.059 ± 0.022	1.143 ± 0.024	1.213 ± 0.025	1.273 ± 0.026	1.325 ± 0.028	1.37 ± 0.028
313.15 K	0.69 ± 0.014	0.805 ± 0.017	0.905 ± 0.019	0.991 ± 0.021	1.065 ± 0.022	1.13 ± 0.024	1.187 ± 0.025	1.236 ± 0.026	1.28 ± 0.027
318.15 K	0.642 ± 0.013	0.745 ± 0.016	0.834 ± 0.017	0.911 ± 0.019	0.978 ± 0.02	1.037 ± 0.022	1.088 ± 0.023	1.131 ± 0.024	1.173 ± 0.024

Oc1ccccc1Cl + CN(C)C=O
Details	viscosity [mPa·s]
303.15 K, 101 kPa, x1 = 0.3286	3.443 ± 1.5

CC(C)c1ccccc1 + CN(C)c1ccccc1
viscosity [mPa·s], 101 kPa
Details	x1 = 0.2	x1 = 0.4	x1 = 0.6	x1 = 0.8
293.15 K	1.228 ± 0.021	1.085 ± 0.019	0.963 ± 0.017	0.865 ± 0.015
313.15 K	0.915 ± 0.016	0.817 ± 0.014	0.733 ± 0.013	0.666 ± 0.012
